Measured values from PMC6120666 (The EMBO Journal, 2018).

Tests used:
Assay in all cases: Drug affinity chromatography with c-ponatinib and LC-MS/MS (ponatinib interactome)
Format in all cases: binding
[1] = target: T1, proteins of U2OS cell lysate (Homo sapiens, UniProt O75533)
T1 construct: Proteins enriched by c-ponatinib from U2OS cell lysate; endogenous in cells; host or cells: U2OS cell lysate
Method: (§1) Drug affinity chromatography
(§2) U2OS cells were grown until approximately 80% confluent before being pelleted and washed with PBS. Cell pellets were subsequently lysed in buffer A (50 mM Tris pH 7.5, 0.8% v/v NP-40, 5% v/v glycerol, 1.5 mM MgCl2, 100 mM NaCl, 25 mM NaF, 1 mM Na3VO4, 1 mM PMSF, 1mM DTT, 10 μg/mL TLCK, 1 μg/ml Leupeptin, 1 μg/ml Aprotinin, 1 μg/ml soy bean trypsin) and lysates prepared […]
(§3) concentration was determined and lysates stored at -80 °C.
(§4) Briefly, 100 μl of bead slurry (50% in isopropanol) were used for each pulldown experiment. Beads were washed with DMSO (3 × 500 μl), and resuspended in DMSO (50 μl), to which the amine (0.025 μmol) and triethylamine (0.75 μl) were added. The beads were incubated at room temperature for 16 h, and depletion of free amine from the supernatant was determined by LC-MS analysis. Ethanolamine (2.5 μl) was then added to block any unreacted NHS sites, and the beads incubated for a further 16 h. Derivatized beads were then washed with DMSO (3 × 500 μl), buffer A (3 × 1 ml), and incubated with cell lysates (2 mg of protein per pulldown, at 6 […]
(§5) Beads and treated lysates were incubated for 2 h at 4 °C before washing with buffer A (5 ml), Buffer B (50 mM HEPES pH 7.5, 100 mM NaCl, 500 μM EDTA, 2.5 ml), and eluted with formic acid (100 mM, 250 μl). Samples were neutralized with triethylammoniumbicarbonate (TEAB, 1M, 62.5 μl) and stored at -20 °C until preparation for proteomic analysis.
(§6) Samples were reduced with DTT (10 mM final concentration) for 30 min at room temperature, alkylated with iodoacetamide (55 mM final concentration) for 30 min at room temperature, diluted to 300 μl with TEAB, and incubated with trypsin (6 μl, 0.2 mg/ml) overnight at 37 °C. The digests were desalted using SEPAC lite columns (Waters), eluted with 69 % v/v MeCN, 0.1 % v/v FA in H2O (1 ml) and dried in vacuo. Dried peptides were stored at -20 °C before resuspension in 2 % v/v MeCN, 1 % v/v FA in H2O (20 μl) for LC-MS/MS analysis.
(§7) LC-MS/MS data acquisition
(§8) Mass spectrometry data was acquired at the Discovery Proteomics Facility (University of Oxford).
(§9) Digested samples were analyzed by nano-UPLC–MS/MS using a Dionex Ultimate 3000 nano UPLC with EASY spray column (75 μm × 500 mm, 2 μm particle size, Thermo Fisher Scientific) with a 60 min gradient of 0.1 % (v/v) formic acid in 5 % (v/v) DMSO to 0.1 % (v/v) formic acid with 35 % (v/v) acetonitrile in 5 % (v/v) DMSO at a flow rate of approximately 250 nl min−1 (600 bar per 40 °C column temperature). Mass spectrometry data was acquired either with an Orbitrap Q Exactive (Survey scans acquired at a resolution of 70,000 @ 200m/z and the 15 most abundant precursors were selected for HCD fragmentation), or an Orbitrap Q Exactive High Field (HF) instrument (survey scans were […]

[2] = target: T2, proteins of U2OS cell lysate (Homo sapiens, UniProt O75964)
T2 construct: Proteins enriched by c-ponatinib from U2OS cell lysate; endogenous in cells; host or cells: U2OS cell lysate
Method: as §1, §2, §3, §4, §5, §6, §7, §8, §9

[3] = target: T3, proteins of U2OS cell lysate (Homo sapiens, UniProt P04049)
T3 construct: Proteins enriched by c-ponatinib from U2OS cell lysate; endogenous in cells; host or cells: U2OS cell lysate
Method: as §1, §2, §3, §4, §5, §6, §7, §8, §9

[4] = target: T4, proteins of U2OS cell lysate (Homo sapiens, UniProt P28074)
T4 construct: Proteins enriched by c-ponatinib from U2OS cell lysate; endogenous in cells; host or cells: U2OS cell lysate
Method: as §1, §2, §3, §4, §5, §6, §7, §8, §9

[5] = target: T5, proteins of U2OS cell lysate (Homo sapiens, UniProt P40227)
T5 construct: Proteins enriched by c-ponatinib from U2OS cell lysate; endogenous in cells; host or cells: U2OS cell lysate
T5 sequence (P40227 whole entry): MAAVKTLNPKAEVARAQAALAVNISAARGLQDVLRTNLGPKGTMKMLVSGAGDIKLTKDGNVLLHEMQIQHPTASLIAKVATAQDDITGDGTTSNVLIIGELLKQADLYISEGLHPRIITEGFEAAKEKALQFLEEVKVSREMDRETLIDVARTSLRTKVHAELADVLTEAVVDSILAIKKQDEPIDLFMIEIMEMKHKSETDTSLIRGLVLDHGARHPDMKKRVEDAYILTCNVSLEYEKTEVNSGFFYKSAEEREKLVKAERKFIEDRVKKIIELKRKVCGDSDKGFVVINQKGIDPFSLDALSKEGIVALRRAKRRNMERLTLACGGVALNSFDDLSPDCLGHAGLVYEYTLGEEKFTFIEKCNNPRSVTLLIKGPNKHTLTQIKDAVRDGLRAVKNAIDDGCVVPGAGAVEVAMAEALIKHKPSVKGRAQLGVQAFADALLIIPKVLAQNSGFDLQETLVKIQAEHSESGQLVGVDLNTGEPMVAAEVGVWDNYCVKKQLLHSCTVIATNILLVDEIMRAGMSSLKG
Method: as §1, §2, §3, §4, §5, §6, §7, §8, §9

[6] = target: T6, proteins of U2OS cell lysate (Homo sapiens, UniProt P50613)
T6 construct: Proteins enriched by c-ponatinib from U2OS cell lysate; endogenous in cells; host or cells: U2OS cell lysate
T6 sequence (P50613 whole entry): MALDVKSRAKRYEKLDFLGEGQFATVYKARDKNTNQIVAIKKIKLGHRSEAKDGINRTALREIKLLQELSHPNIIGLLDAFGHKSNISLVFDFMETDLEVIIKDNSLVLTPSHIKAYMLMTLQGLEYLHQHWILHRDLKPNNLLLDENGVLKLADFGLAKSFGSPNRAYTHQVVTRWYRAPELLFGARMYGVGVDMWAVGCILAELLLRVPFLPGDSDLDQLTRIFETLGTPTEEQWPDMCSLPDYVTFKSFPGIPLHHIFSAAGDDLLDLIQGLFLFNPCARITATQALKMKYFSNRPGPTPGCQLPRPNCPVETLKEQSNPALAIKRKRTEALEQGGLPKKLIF
Method: as §1, §2, §3, §4, §5, §6, §7, §8, §9

[7] = target: T7, proteins of U2OS cell lysate (Homo sapiens, UniProt P63244)
T7 construct: Proteins enriched by c-ponatinib from U2OS cell lysate; endogenous in cells; host or cells: U2OS cell lysate
Method: as §1, §2, §3, §4, §5, §6, §7, §8, §9

[8] = target: T8, proteins of U2OS cell lysate (Homo sapiens, UniProt P83436)
T8 construct: Proteins enriched by c-ponatinib from U2OS cell lysate; endogenous in cells; host or cells: U2OS cell lysate
T8 sequence (P83436 whole entry): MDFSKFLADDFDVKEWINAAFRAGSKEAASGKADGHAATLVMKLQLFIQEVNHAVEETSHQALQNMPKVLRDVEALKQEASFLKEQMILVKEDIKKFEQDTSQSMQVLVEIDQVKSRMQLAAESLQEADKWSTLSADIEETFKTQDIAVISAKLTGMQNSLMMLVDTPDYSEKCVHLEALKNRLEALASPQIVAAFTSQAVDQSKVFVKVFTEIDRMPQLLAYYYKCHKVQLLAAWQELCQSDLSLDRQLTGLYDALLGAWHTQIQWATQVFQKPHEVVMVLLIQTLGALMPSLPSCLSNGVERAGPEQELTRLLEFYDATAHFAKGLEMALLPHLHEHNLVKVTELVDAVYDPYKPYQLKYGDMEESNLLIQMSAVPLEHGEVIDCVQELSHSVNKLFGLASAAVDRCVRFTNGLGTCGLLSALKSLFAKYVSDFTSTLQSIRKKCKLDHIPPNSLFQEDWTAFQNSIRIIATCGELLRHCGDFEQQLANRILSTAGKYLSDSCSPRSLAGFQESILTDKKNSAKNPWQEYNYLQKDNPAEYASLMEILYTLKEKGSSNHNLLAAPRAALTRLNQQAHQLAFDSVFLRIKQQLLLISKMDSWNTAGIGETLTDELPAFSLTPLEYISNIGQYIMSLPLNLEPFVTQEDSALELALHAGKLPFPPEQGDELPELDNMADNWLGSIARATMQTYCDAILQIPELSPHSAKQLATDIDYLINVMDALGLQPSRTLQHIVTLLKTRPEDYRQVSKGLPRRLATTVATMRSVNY
Method: as §1, §2, §3, §4, §5, §6, §7, §8, §9

[9] = target: T9, proteins of U2OS cell lysate (Homo sapiens, UniProt Q01130)
T9 construct: Proteins enriched by c-ponatinib from U2OS cell lysate; endogenous in cells; host or cells: U2OS cell lysate
T9 sequence (Q01130 whole entry): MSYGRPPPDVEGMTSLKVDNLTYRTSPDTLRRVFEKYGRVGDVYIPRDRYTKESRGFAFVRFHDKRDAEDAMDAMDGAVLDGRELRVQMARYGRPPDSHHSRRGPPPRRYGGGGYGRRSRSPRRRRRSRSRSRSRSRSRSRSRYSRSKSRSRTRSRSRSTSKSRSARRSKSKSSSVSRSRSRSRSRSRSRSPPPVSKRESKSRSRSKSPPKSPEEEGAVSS
Method: as §1, §2, §3, §4, §5, §6, §7, §8, §9

[10] = target: T10, proteins of U2OS cell lysate (Homo sapiens, UniProt Q03252)
T10 construct: Proteins enriched by c-ponatinib from U2OS cell lysate; endogenous in cells; host or cells: U2OS cell lysate
Method: as §1, §2, §3, §4, §5, §6, §7, §8, §9

[11] = target: T11, proteins of U2OS cell lysate (Homo sapiens, UniProt Q15428)
T11 construct: Proteins enriched by c-ponatinib from U2OS cell lysate; endogenous in cells; host or cells: U2OS cell lysate
Method: as §1, §2, §3, §4, §5, §6, §7, §8, §9

[12] = target: T12, proteins of U2OS cell lysate (Homo sapiens, UniProt Q99460)
T12 construct: Proteins enriched by c-ponatinib from U2OS cell lysate; endogenous in cells; host or cells: U2OS cell lysate
T12 sequence (Q99460 whole entry): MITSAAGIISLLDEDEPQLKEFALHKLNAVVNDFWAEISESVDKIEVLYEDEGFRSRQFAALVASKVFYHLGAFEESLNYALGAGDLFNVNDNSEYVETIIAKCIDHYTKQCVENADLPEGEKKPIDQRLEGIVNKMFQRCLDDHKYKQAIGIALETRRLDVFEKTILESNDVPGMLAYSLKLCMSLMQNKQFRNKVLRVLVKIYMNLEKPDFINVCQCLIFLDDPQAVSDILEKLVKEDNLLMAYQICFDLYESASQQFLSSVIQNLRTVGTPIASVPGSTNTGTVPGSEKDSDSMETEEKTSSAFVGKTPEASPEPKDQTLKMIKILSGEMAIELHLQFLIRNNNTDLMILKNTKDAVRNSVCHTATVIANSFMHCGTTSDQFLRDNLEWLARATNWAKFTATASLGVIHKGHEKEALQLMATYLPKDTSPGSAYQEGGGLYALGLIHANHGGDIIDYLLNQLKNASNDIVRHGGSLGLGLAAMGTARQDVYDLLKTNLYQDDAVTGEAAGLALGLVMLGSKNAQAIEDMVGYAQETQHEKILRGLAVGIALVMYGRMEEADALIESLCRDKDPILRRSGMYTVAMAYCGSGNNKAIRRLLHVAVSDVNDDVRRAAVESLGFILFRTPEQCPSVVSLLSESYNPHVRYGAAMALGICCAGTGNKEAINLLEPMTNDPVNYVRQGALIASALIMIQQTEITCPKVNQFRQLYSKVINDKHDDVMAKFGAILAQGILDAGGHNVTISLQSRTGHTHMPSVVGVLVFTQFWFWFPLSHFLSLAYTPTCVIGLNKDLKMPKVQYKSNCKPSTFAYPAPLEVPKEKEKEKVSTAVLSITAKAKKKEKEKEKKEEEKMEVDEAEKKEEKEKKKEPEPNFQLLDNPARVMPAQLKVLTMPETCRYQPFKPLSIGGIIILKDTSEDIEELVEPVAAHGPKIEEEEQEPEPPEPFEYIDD
Method: as §1, §2, §3, §4, §5, §6, §7, §8, §9

[13] = target: T13, proteins of U2OS cell lysate (Homo sapiens, UniProt Q99832)
T13 construct: Proteins enriched by c-ponatinib from U2OS cell lysate; endogenous in cells; host or cells: U2OS cell lysate
Method: as §1, §2, §3, §4, §5, §6, §7, §8, §9

[14] = target: T14, proteins of U2OS cell lysate (Homo sapiens, UniProt Q9BQE3)
T14 construct: Proteins enriched by c-ponatinib from U2OS cell lysate; endogenous in cells; host or cells: U2OS cell lysate
Method: as §1, §2, §3, §4, §5, §6, §7, §8, §9

[15] = target: T15, proteins of U2OS cell lysate (Homo sapiens, UniProt Q9UP83)
T15 construct: Proteins enriched by c-ponatinib from U2OS cell lysate; endogenous in cells; host or cells: U2OS cell lysate
T15 sequence (Q9UP83 whole entry): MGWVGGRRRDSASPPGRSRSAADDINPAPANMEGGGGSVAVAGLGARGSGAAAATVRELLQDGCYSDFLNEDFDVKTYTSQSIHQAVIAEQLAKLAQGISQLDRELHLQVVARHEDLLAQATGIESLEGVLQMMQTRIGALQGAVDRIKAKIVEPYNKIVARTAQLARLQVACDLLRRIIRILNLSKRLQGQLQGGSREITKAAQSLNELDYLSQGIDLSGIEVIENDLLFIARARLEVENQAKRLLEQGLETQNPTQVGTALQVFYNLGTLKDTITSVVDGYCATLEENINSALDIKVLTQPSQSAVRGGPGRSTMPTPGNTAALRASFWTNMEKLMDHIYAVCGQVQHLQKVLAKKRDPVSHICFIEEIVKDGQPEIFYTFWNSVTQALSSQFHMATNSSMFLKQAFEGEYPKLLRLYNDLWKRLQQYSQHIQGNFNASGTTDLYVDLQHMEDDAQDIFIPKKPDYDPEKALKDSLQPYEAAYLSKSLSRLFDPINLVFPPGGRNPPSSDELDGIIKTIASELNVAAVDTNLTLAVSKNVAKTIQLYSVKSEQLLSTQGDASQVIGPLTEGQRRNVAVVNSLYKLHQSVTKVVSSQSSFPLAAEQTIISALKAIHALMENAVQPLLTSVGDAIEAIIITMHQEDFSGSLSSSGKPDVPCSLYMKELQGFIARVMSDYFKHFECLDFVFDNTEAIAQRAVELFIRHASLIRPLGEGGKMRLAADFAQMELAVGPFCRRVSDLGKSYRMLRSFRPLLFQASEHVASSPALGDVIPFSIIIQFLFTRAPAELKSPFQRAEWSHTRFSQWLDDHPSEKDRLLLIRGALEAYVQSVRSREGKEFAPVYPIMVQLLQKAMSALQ
Method: as §1, §2, §3, §4, §5, §6, §7, §8, §9

[16] = target: T16, proteins of U2OS cell lysate (Homo sapiens, UniProt Q9UQ35)
T16 construct: Proteins enriched by c-ponatinib from U2OS cell lysate; endogenous in cells; host or cells: U2OS cell lysate
Method: as §1, §2, §3, §4, §5, §6, §7, §8, §9

[17] = system: proteins of U2OS cell lysate
Method: as §1, §2, §3, §4, §5, §6, §7, §8, §9

T1 sequence (O75533 whole entry): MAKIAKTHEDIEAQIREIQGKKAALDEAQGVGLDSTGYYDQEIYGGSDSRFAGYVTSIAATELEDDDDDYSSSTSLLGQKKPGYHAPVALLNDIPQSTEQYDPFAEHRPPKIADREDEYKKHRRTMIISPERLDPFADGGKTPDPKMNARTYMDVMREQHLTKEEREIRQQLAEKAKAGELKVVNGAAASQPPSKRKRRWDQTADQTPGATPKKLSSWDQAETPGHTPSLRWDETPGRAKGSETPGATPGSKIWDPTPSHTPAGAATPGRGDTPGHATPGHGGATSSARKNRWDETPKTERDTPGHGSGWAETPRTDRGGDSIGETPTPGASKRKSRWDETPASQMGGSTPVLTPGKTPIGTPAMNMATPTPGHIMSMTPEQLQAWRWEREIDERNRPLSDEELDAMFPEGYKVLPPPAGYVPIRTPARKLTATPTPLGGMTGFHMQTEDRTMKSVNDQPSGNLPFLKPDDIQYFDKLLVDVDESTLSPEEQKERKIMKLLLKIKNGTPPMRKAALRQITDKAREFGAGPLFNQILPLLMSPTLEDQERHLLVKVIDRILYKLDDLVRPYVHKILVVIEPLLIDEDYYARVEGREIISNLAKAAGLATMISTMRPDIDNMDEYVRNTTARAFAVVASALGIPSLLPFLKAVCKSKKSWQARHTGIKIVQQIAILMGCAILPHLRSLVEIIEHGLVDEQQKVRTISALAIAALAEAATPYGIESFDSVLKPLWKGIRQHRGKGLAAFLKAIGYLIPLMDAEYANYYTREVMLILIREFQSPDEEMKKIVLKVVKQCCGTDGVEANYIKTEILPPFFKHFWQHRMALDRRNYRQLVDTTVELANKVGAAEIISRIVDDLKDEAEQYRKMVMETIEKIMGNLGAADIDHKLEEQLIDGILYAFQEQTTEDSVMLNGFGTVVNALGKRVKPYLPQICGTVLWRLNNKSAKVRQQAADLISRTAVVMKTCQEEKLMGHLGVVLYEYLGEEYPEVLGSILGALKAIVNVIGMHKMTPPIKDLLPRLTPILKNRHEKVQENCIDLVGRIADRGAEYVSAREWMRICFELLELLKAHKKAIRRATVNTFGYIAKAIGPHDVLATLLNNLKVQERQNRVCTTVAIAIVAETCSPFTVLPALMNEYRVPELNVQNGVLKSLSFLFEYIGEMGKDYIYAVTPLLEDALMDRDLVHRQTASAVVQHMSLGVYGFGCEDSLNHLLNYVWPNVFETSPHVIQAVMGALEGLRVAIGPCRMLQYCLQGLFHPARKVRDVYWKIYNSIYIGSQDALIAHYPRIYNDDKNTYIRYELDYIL

Cc1ccc(C(=O)Nc2ccc(CN3CCN(CCCN)CC3)c(C(F)(F)F)c2)cc1C#Cc1cnc2cccnn12 [c-ponatinib, reference compound]
Average LFQ intensity ([1]; captured protein SF3B1, Rank 165): 22.352
Average LFQ intensity ([2]; captured protein ATP5L, Rank 125): 22.9891
Average LFQ intensity ([3]; captured protein RAF1, Rank 223): 21.5685
Average LFQ intensity ([4]; captured protein PSMB5, Rank 211): 21.7301
Average LFQ intensity ([5]; captured protein CCT6A, Rank 133): 22.8673
Average LFQ intensity ([6]; captured protein CDK7, Rank 187): 22.0619
Average LFQ intensity ([7]; captured protein GNB2L1, Rank 153): 22.5999
Average LFQ intensity ([8]; captured protein COG7, Rank 182): 22.1578
Average LFQ intensity ([9]; captured protein SRSF2, Rank 132): 22.8743
Average LFQ intensity ([10]; captured protein LMNB2, Rank 128): 22.9109
Average LFQ intensity ([11]; captured protein SF3A2, Rank 134): 22.8464
Average LFQ intensity ([12]; captured protein PSMD1, Rank 199): 21.8552
Average LFQ intensity ([13]; captured protein CCT7, Rank 127): 22.9495
Average LFQ intensity ([14]; captured protein TUBA1C, Rank 213): 21.711
Average LFQ intensity ([15]; captured protein COG5, Rank 186): 22.09
Average LFQ intensity ([16]; captured protein SRRM2, Rank 197): 21.862
Average LFQ intensity ([17]; captured protein ACTR1A;ACTR1B, Rank 131): 22.8935
Average LFQ intensity ([17]; captured protein ATP1A1;ATP1A3;ATP1A2, Rank 167): 22.3247
Average LFQ intensity ([17]; captured protein CDK1;CDK2, Rank 143): 22.743
Average LFQ intensity ([17]; captured protein DYNLRB1;DYNLRB2, Rank 170): 22.2764
Average LFQ intensity ([17]; captured protein GNB2;GNB4;GNB1, Rank 150): 22.669
Average LFQ intensity ([17]; captured protein H3F3B;H3F3A;HIST2H3A;HIST3H3;HIST1H3A;H3F3C;HIST2H3PS2, Rank 159): 22.4876
Average LFQ intensity ([17]; captured protein HNRNPA1;HNRNPA1L2, Rank 216): 21.6974
Average LFQ intensity ([17]; captured protein LUC7L2;LUC7L, Rank 142): 22.7445
Average LFQ intensity ([17]; captured protein MYL12A;MYL12B, Rank 201): 21.8427
Average LFQ intensity ([17]; captured protein OGDH;OGDHL, Rank 189): 22.0277
Average LFQ intensity ([17]; captured protein PSMA7;PSMA8, Rank 184): 22.0977
Average LFQ intensity ([17]; captured protein RAB11A;RAB11B, Rank 162): 22.3634
Average LFQ intensity ([17]; captured protein RPS10;RPS10P5, Rank 217): 21.6692
Average LFQ intensity ([17]; captured protein RPS26;RPS26P11, Rank 219): 21.6239
Average LFQ intensity ([17]; captured protein RPS27L;RPS27, Rank 208): 21.7512
Average LFQ intensity ([17]; captured protein SNRPN;SNRPB, Rank 206): 21.7664

Cc1ccc(C(=O)Nc2ccc(CN3CCN(C)CC3)c(C(F)(F)F)c2)cc1C#Cc1cnc2cccnn12 [PON]
Average LFQ PON_WT ([1]; SF3B1, Splicing factor 3B subunit 1): 22.352
Average LFQ PON_WT ([2]; ATP5L, ATP synthase subunit g, mitochondrial): 22.9891
Average LFQ PON_WT ([3]; RAF1, RAF proto-oncogene serine/threonine-protein kinase): 21.5684
Average LFQ PON_WT ([4]; PSMB5, Proteasome subunit beta type-5): 21.73
Average LFQ PON_WT ([5]; CCT6A, T-complex protein 1 subunit zeta): 22.8673
Average LFQ PON_WT ([6]; CDK7, Cyclin-dependent kinase 7): 22.0619
Average LFQ PON_WT ([7]; GNB2L1, Guanine nucleotide-binding protein subunit beta-2-like 1): 22.5999
Average LFQ PON_WT ([8]; COG7, Conserved oligomeric Golgi complex subunit 7): 22.1578
Average LFQ PON_WT ([9]; SRSF2, Serine/arginine-rich splicing factor 2): 22.8743
Average LFQ PON_WT ([10]; LMNB2, Lamin-B2): 22.9109
Average LFQ PON_WT ([11]; SF3A2, Splicing factor 3A subunit 2): 22.8464
Average LFQ PON_WT ([12]; PSMD1, 26S proteasome non-ATPase regulatory subunit 1): 21.8552
Average LFQ PON_WT ([13]; CCT7, T-complex protein 1 subunit eta): 22.9495
Average LFQ PON_WT ([14]; TUBA1C, Tubulin alpha-1C chain): 21.711
Average LFQ PON_WT ([15]; COG5, Conserved oligomeric Golgi complex subunit 5): 22.09
Average LFQ PON_WT ([16]; SRRM2, Serine/arginine repetitive matrix protein 2): 21.862
Average LFQ PON_WT ([17]; ACTG1;ACTB;ACTG2;ACTA1;ACTC1;ACTA2, Actin, cytoplasmic 2): 29.1554
Average LFQ PON_WT ([17]; HIST1H1C;HIST1H1E;HIST1H1D;HIST1H1A, Histone H1.2): 24.5034
